# ChEMBL document CHEMBL1150838, “Cytotoxic constituents of the fruits of Cananga odorata” (J Nat Prod, 2001)
# What was measured:
# [1] = tested on: HepG2; assay: Cytotoxicity against human HepG2 cells by MTT assay; type: functional, cell-based
# [2] = Cytotoxicity against human HepG2(2.2.15) cells by MTT assay; type: functional, cell-based
smiles,measurement,setting,value
COc1cc(/C=C/C(=O)NCCc2ccc(O)cc2)ccc1O [N-TRANS-FERULOYL TYRAMINE],IC50,[1],6.6 µg/mL
same,IC50,[2],1.9 µg/mL
CC1=C2C[C@H](C(C)(C)O[C@@H]3O[C@@H](C)[C@H](O)[C@@H](O)[C@H]3O)CC[C@@]2(C)CCC1,IC50,[1],3.9 µg/mL
same,IC50,[2],10.6 µg/mL
CC1=C2C[C@H](C(C)(C)O)CC[C@@]2(C)CCC1,IC50,[1],1.5 µg/mL
same,IC50,[2],0.01 µg/mL
C[C@@H]1O[C@@H](OC(C)(C)[C@@H]2CC[C@@]3(C)CCC[C@@](C)(O)[C@@H]3C2)[C@H](O)[C@H](O)[C@H]1O,IC50,[1],0.01 µg/mL
same,IC50,[2],0.36 µg/mL
Cc1ccc2c(n1)C[C@H](C(C)(C)O)CC[C@H]2C [CANANODINE],IC50,[1],0.22 µg/mL
same,IC50,[2],3.8 µg/mL
Cc1ccnc2c1C(=O)c1ccccc1C2=O [CLEISTOPHOLINE],IC50,[1],0.22 µg/mL
same,IC50,[2],0.54 µg/mL
